From PMC6450621, “Changes of drug pharmacokinetics mediated by downregulation of kidney organic cation transporters Mate1 and Oct2 in a rat model of hyperuricemia” (PLoS ONE, 2019)
Where “and” joins values, the source holds several entries; their conditions need not be identical. Equal entries are not always repeated.

How the values were obtained:
[1] = test system: Mock cells; assay: Uptake of MPP+ by mock cells (background for MATE1-expressing cells); type: cell-based; conditions: replicates and mean
Method: Dunnett's test was used for uptake study to compare the control group to groups treated with drugs.
Percentages of control were calculated as the ratio of MATE1-mediated uptake of MPP^+ that obtained after subtraction of the uptake of MPP^+ by mock cells in compound treated groups to that in control group.

[2] = biological target: T1, human MATE1 (Homo sapiens, UniProt Q96FL8); assay: Uptake of [3H]MPP+ by MATE1-expressing HEK293 cells; type: cell-based; conditions: for MATE1-mediated uptake of [3H]MPP+, percentage of control: HEK293/hMATE1 minus mock, 0.25 nM [3H]MPP+, 0.5 min, 37°C; for MATE1-mediated uptake of MPP+, % of Control: after subtraction of uptake by mock cells; for MATE1-mediated uptake of MPP+, % of Control / C/M ratio of MPP+ uptake, MATE1-expressing cells: replicates and mean
T1 construct: expressed in transfected cells; host or cells: HEK293 (HEK293/hMATE1; gift from Dr. Inoue, Tokyo University of Pharmacy and Life Science)
T1 sequence (Q96FL8 1-570): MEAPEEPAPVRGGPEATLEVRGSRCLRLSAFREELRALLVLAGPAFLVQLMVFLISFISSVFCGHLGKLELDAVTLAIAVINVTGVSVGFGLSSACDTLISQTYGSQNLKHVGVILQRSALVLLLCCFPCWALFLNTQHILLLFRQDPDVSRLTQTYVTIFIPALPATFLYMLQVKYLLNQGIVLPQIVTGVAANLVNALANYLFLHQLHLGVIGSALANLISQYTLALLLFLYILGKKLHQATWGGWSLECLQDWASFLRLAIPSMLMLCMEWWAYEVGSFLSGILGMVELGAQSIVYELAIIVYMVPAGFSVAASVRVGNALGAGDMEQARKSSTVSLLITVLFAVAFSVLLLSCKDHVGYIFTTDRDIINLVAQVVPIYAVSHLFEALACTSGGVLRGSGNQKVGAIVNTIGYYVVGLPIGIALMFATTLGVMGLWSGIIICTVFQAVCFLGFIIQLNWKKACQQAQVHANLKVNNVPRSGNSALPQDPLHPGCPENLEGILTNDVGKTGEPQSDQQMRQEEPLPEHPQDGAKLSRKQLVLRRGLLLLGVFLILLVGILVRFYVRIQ
Method: HEK293 cells transfected with human MATE1 (HEK293/hMATE1) and vector alone (mock) were gifts from Dr. Inoue (Tokyo University of Pharmacy and Life Science). […] HEK293/mock and HEK293/hMATE1 cells were plated at a density of 3.0 × 10^5 cells/well on 24-well plates and cultured for two days before an uptake assay. […] Radioactivity was measured with a liquid scintillation counter (Hitachi Aloka Medical, Tokyo, Japan). Part of the lysate was used for the determination of total protein amount with Bio-Rad protein assay dye reagent. Uptake of MPP^+ was expressed as a cell-to-medium ratio (μL/mg protein) obtained by dividing the uptake amount by the concentration of substrate in the TM. Percentages of control were calculated as the ratio of MATE1-mediated uptake of MPP^+ that obtained after subtraction of the uptake of MPP^+ by mock cells in compound treated groups to that in control group.

[3] = Plasma concentration of oxonic acid and adenine in hyperuricemic rats; type: in vivo, rat; conditions: hyperuricemic rats given oral oxonic acid […] and adenine 0.1 g/kg; detection limit 100 μM for oxonic acid

O=C(O)c1nc(=O)[nH]c(=O)[nH]1 [oxonic acid]
C/M ratio of MPP+ uptake, Mock cells ([1]; Oxonic acid 50 µM): 18.7 µL/mg protein and 13.1 µL/mg protein and 12.3 µL/mg protein | C/M ratio of MPP+ uptake, Mock cells ([1]; Oxonic acid 50 µM, mean): 14.7 µL/mg protein | C/M ratio of MPP+ uptake, Mock cells ([1]; Oxonic acid 500 µM): 19.2 µL/mg protein and 28.0 µL/mg protein and 20.9 µL/mg protein | C/M ratio of MPP+ uptake, Mock cells ([1]; Oxonic acid 500 µM, mean): 22.7 µL/mg protein | MATE1-mediated uptake of [3H]MPP+, percentage of control ([2]; 50 μM test compound): 101.5% | MATE1-mediated uptake of [3H]MPP+, percentage of control ([2]; 500 μM test compound): 98.2% | Inhibitory effect on MATE1-mediated MPP+ uptake ([2]; 50 and 500 μM of each): No inhibitory effects | MATE1-mediated uptake of MPP+, % of Control ([2]; Oxonic acid 50 µM): 93.3 % of Control and 90.1 % of Control and 121.0 % of Control | MATE1-mediated uptake of MPP+, % of Control ([2]; Oxonic acid 50 µM, mean): 101.5 % of Control | C/M ratio of MPP+ uptake, MATE1-expressing cells ([2]; Oxonic acid 50 µM): 177 µL/mg protein and 232 µL/mg protein and 183 µL/mg protein | C/M ratio of MPP+ uptake, MATE1-expressing cells ([2]; Oxonic acid 50 µM, mean): 197 µL/mg protein | MATE1-mediated uptake of MPP+, % of Control ([2]; Oxonic acid 500 µM): 118.1 % of Control and 83.7 % of Control and 92.8 % of Control | MATE1-mediated uptake of MPP+, % of Control ([2]; Oxonic acid 500 µM, mean): 98.2 % of Control | C/M ratio of MPP+ uptake, MATE1-expressing cells ([2]; Oxonic acid 500 µM): 173 µL/mg protein and 190 µL/mg protein and 235 µL/mg protein | C/M ratio of MPP+ uptake, MATE1-expressing cells ([2]; Oxonic acid 500 µM, mean): 199 µL/mg protein | Plasma concentration [3]: lower than 100 μM
